ChEMBL document CHEMBL3886397, “Agent for treatment of eye diseases” (2015)

Target: Transitional endoplasmic reticulum ATPase (Mus musculus, UniProt Q01853)
Assay: Inhibition Assay: Mouse VCP cDNA was added with a DNA sequence corresponding to histidine tag at the amino-terminal, subcloned into a baculovirus vector pVL1392 (BD Bioscience), and expressed in Sf-9 insect cells. The protein was purified with a nickel column (GE Healthcare). The concentration of the protein was adjusted to 0.25-0.5 ug/ml and the protein was stored in a solution containing 50 mM TrisCl pH 8.0, 5 mM EDTA, 10% glycerol, and 15 mM DTT. The ATPase activity was determined as follows. 500 ng of the purified VCP was mixed with 100 uM [gamma-32P]ATP (18.5 GBq/mmol) and the test substance in 20 uL of ATPase buffer (20 mM HEPES (pH7.4), 50 mM KCl, 5 mM MgCl2, 15 mM DTT), and incubated at 37° C. for 10 minutes.The enzyme reaction was stopped with addition of 200 uL of an ice-cold solution containing 7% TCA and 1 mM K2HPO4. 50ul of a solution containing 3.75% ammonium molybdate and 0.02M tungstate silicic/3 NH2SO4 was added, followed by 300 uL of […].

Sequence of Transitional endoplasmic reticulum ATPase (Q01853 whole entry): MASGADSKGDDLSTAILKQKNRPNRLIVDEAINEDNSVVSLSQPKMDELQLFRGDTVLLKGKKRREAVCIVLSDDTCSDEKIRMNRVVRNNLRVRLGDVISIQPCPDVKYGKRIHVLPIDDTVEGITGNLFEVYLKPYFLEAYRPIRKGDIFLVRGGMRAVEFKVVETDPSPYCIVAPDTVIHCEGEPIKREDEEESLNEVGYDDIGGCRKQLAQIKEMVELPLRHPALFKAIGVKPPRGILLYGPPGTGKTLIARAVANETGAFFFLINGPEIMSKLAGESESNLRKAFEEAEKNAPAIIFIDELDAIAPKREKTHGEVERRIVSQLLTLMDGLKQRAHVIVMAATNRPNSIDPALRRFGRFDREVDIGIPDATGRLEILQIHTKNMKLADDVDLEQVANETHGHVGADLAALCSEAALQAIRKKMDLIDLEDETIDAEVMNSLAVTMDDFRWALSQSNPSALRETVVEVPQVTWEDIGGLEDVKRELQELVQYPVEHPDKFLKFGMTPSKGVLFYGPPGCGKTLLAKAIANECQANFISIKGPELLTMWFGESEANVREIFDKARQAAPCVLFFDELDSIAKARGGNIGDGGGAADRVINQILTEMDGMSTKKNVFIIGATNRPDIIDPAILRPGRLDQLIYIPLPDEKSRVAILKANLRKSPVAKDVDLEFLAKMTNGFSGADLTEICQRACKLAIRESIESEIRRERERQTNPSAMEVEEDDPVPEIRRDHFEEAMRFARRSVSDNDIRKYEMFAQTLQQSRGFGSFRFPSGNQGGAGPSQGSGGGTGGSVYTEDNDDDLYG

CC(=O)c1ccc(-c2ccc(/N=N/c3cc(S(=O)(=O)O)c4ccccc4c3N)cn2)cc1
IC50: 136 nM

Nc1c(/N=N/c2ccc(-c3cc(C(F)(F)F)cc(C(F)(F)F)c3)nc2)cc(S(=O)(=O)O)c2ccccc12
IC50: 2750 nM
